Results from the NIST ThermoML archive (doi:10.1021/je700260f).

Details: 313.14 K, Liquid, Vibrating tube method

FC(C(F)(F)F)C(F)(F)F [1,1,1,2,3,3,3-heptafluoropropane]
Details | mass density [kg/m3]
6295 kPa | 1372.2
6319 kPa | 1372.4
6347 kPa | 1372.4
6379 kPa | 1372.7
8595 kPa | 1388.5
12590 kPa | 1413.1
13048 kPa | 1415.8
13083 kPa | 1416
14273 kPa | 1422.5
14312 kPa | 1422.7
14342 kPa | 1422.9
18535 kPa | 1443.8
18569 kPa | 1443.9
18598 kPa | 1444.1
18633 kPa | 1444.1
18662 kPa | 1444.3
25516 kPa | 1473.5
25569 kPa | 1473.8
25615 kPa | 1473.9
25663 kPa | 1474
25698 kPa | 1474.2
25734 kPa | 1474.4
25776 kPa | 1474.5
25819 kPa | 1474.7
25862 kPa | 1474.7
25905 kPa | 1475
25953 kPa | 1475.3
25993 kPa | 1475.3
26035 kPa | 1475.5
26070 kPa | 1475.7
26129 kPa | 1475.7
26171 kPa | 1475.9
26230 kPa | 1476.2
26265 kPa | 1476.5
26307 kPa | 1476.7
26355 kPa | 1476.6
26384 kPa | 1476.9
26431 kPa | 1477
26467 kPa | 1477.1
26516 kPa | 1477.3
26563 kPa | 1477.5
26598 kPa | 1477.7
26634 kPa | 1477.8
26676 kPa | 1477.9
26712 kPa | 1478
26759 kPa | 1478.2
26806 kPa | 1478.3
26855 kPa | 1478.6
26891 kPa | 1478.6
26928 kPa | 1478.9
26976 kPa | 1479
27297 kPa | 1480.2
27651 kPa | 1481.6
27676 kPa | 1481.7
27719 kPa | 1481.9
27749 kPa | 1482
27835 kPa | 1482.4
27864 kPa | 1482.4
28790 kPa | 1485.8
28820 kPa | 1485.9
28855 kPa | 1486.1
28889 kPa | 1486.1
28918 kPa | 1486.2
28953 kPa | 1486.3
28993 kPa | 1486.5
29033 kPa | 1486.8
29059 kPa | 1486.6
29641 kPa | 1489
29682 kPa | 1489.1
29711 kPa | 1489.2
29757 kPa | 1489.4
29798 kPa | 1489.5
29841 kPa | 1489.5
29883 kPa | 1489.8
29915 kPa | 1489.9
29950 kPa | 1489.9
29980 kPa | 1490.2
30015 kPa | 1490.2
30045 kPa | 1490.2
30081 kPa | 1490.3
30117 kPa | 1490.6
30159 kPa | 1490.6
30185 kPa | 1490.7
30217 kPa | 1491
30259 kPa | 1491.1
30299 kPa | 1491.3
30342 kPa | 1491.3
30376 kPa | 1491.5
30424 kPa | 1491.8
30466 kPa | 1491.8
30511 kPa | 1492
30547 kPa | 1492
30593 kPa | 1492.2
30624 kPa | 1492.2
30664 kPa | 1492.6
30690 kPa | 1492.5
30727 kPa | 1492.7
30775 kPa | 1492.8
30815 kPa | 1493
30847 kPa | 1493.3
30889 kPa | 1493.2
30921 kPa | 1493.5
30962 kPa | 1493.5
